The values that follow come from patent US10323229B1, “Three-dimensional human stem cell-derived cortical spheroid model” (The Florida State University Research Foundation, Inc., priority 2015, dated 2019).

The test system of series [1] is hiPSC-derived neural cells. The experiment in a line: NMDA-induced neurotoxicity (MTT, ROS, poly caspase). Format: cell-based, human. On the procedure: (§1) The hiPSC-derived neural cells were tested to determine response to different drugs and small molecules. Neural cells were formed as described in Example 2. After differentiation, the derived neural cells were replated onto Geltrex-coated 96-well plate and treated with N-methyl-D-aspartate (NMDA) at 0, 0.05, 0.5, 1 mM to mimic general neural toxicity. Cells were tested to determine response to neural protective molecules. Carbenoxolone (Cx, Sigma) (Beraki, et al., A pharmacological screening approach for discovery of neuroprotective compounds in ischemic stroke, PLoS One, 8 (2013) e69233) was added at different doses (0, 10 µM, 50 µM) of Cx were added with 0.5 mM NMDA for the first 24 h. Then samples were washed with phosphate buffer and the same doses of Cx were added for another 24 h. The cells were then characterized by MTT, reactive oxygen species (ROS), and poly caspase assays.
(§2) Briefly, the replated neural cells were incubated with 5 mg/mL 3-(4,5-Dimethylthiazol-2-yl)-2,5-diphenyltetrazolium bromide (MTT, Sigma) solution. The absorbance was measured at 500 nm using a microplate reader (Biorad, Richmond, Calif.). Image-iT™ Live Green Reactive Oxygen Species Detection kit (Molecular Probes) was used to detect the intracellular ROS. Briefly, neural cells were seeded at 1×10^5/mL in 96-well plates (100 μL). After 3 days, the cells were rinsed with Hank's balanced salt solution and incubated with 25 μM carboxy-H2DCFDA for 30 min at 37° C. The samples were washed and measured under a fluorescence microplate reader using 488 nm excitation wavelength and 530 nm for emission (Bio-Tek, FLx800, Winoosk, Vt.). Image-iT™ Live Green Poly Caspase Detection kit (Molecular Probes) was used to detect the expression of caspases. The replated cells were incubated for one hour with the fluorescent inhibitor of caspases reagent and analyzed by a fluorescence microplate reader.

The test system of series [2] is neuronal cells derived from hiPSK3 cells. Nature of the series: MMP-2/-9 inhibitor effects: neurite density, MTT, cell counting. Format: cell-based, human. Conditions: phase contrast, 1 μM. As for the experimental part:
Derived neural cells, as described above, were replated onto Geltrex-coated 96-well plate and treated with MMP inhibitors: ARP 100 (MMP-2 inhibitor), MMP-9 inhibitor I, or SB-3CT (MMP-2 and MMP-9 inhibitor) (all from Santa Cruz) at 1 μM.
The cells were then characterized by MTT, reactive oxygen species (ROS), and poly caspase assays. For some experiments, cell numbers were counted using hemocytometer after trypsin/EDTA dissociation.
as §2, with “Image-iT™ Live Green Poly Caspase Detection kit (Molecular Probes) was used to detect the expression of caspases.” left out

Series [3] relates to hiPSC-derived neural cells. The experiment in a line: Carbenoxolone neuroprotection from NMDA-induced neurotoxicity (MTT, ROS, poly caspase). Format: cell-based, human. As for the experimental part: as §1, §2
The subject of series [4] is hiPSK3-derived EBs. The experiment in a line: Neural patterning, immunocytochemistry marker quantification. Format: cell-based, human. The settings on record: day 42 cells, CHIR 3 μM added to purmorphamine/FGF-2/RA. On the procedure:
Cells were analyzed using phase contrast microscopy, as described in Example 1 or immunohistochemistry. […] After washing, the cells were incubated with the corresponding secondary antibody: Alexa Fluor® 488 goat anti-Mouse IgG, Alexa Fluor® 488 or 594 goat anti-Rabbit IgG, or Alexa Fluor® 594 donkey anti-goat IgG (Life Technologies). The samples were stained with Hoechst 33342 and visualized under a fluorescent microscope (Olympus IX70, Melville, N.Y.). The images from five independent fields (800-1000 cells) were analyzed using ImageJ software. The proportion of positive cells was calculated based on the intensity of marker of interest normalized to the nuclear intensity, indicating the relative expression among different conditions. A neuronal model was prepared using LDN/SB induction, as discussed in Example 2. Neural patterning of hiPSCs was tuned through treatment with cyclopamine (the antagonist of SHH signaling) or purmorphamine (the agonist of SHH signaling) (Stanton & Peng, Small-molecule modulators of the Sonic Hedgehog signaling pathway, Mol Biosyst, 6 (2010) 44-54). […] After 8 days, the cells were treated with different growth factor combinations: […] (3) FGF-2 (10 ng/mL) and cyclopamine (1 μM, Sigma). […]

Series [5] concerns neural cells derived from human iPSK3 cells. Nature of the series: Aβ1-42 oligomer-induced response in presence of GSK-3β inhibitor CHIR99021 (MTT, ROS, caspase). The settings on record: CH 10 μM with 1 μM Aβ1-42 oligomers, day 46 cells. Format: cell-based.
Source text: The cells were subsequently characterized by MTT, ROS, and poly caspase assays (Yan, et al., Cryopreservation of embryonic stem cell-derived multicellular neural aggregates labeled with micron-sized particles of iron oxide for magnetic resonance imaging, Biotechnol Prog, 31 (2015) 510-521; Sart, et al., The microenvironment of embryoid bodies modulated the commitment to neural lineage post-cryopreservation, Tissue Eng Part C: Methods., 21 (2015) 356-366). To evaluate the influence of glycogen synthase kinase (GSK)-3p inhibitor, CHIR99021 (1 or 10 μM) was added to the cultures treated with 1 μM Aβ1-42 oligomers for three days and characterized.
as §2

As for `CN[C@H](CC(=O)O)C(=O)O` [NMDA, N-methyl-D-aspartate], in series [1] (NMDA 0-1 mM), the caspase activity result was “logarithmic relationship with NMDA concentration” and the “expression of ROS” value is given as “increased logarithmically”. Further, the “reduction of MTT activity” value in series [1] (NMDA 0.5 or 1 mM, all three groups (control, Purmo, Cyclo)) is recorded as 30-50%.

As for `O=S(=O)(CC1CS1)c1ccc(Oc2ccccc2)cc1` (stereo not drawn) [SB-3CT], the results for the neurite density result in series [2] (Cyclo group (more cortical glutamatergic neurons)) and in series [2] (Purmo group (more motor neurons)) were “little changes” and “reduction of neurite density”, respectively.

With `CC1(C)[C@@H](OC(=O)CCC(=O)O)CC[C@]2(C)[C@H]3C(=O)C=C4[C@@H]5C[C@@](C)(C(=O)O)CC[C@]5(C)CC[C@@]4(C)[C@]3(C)CC[C@@H]12` [carbenoxolone, Carbenoxolone], the “increase in MTT activity” value in series [3] (carbenoxolone 10 or 50 μM with 0.5 mM NMDA) is on record as 28-56%. Besides, in series [3] (carbenoxolone with 0.5 mM NMDA), the “expression of ROS” value was “reduced expression of ROS”. Also, the caspase activity entry in series [3] (carbenoxolone with 0.5 mM NMDA, all three groups) is “decreased”.

As for `Cc1c[nH]c(-c2cnc(NCCNc3ccc(C#N)cn3)nc2-c2ccc(Cl)cc2Cl)n1` [CHIR99021], the “expression of ISL1 and HB9 (motor neuron differentiation)” value in series [4] was “increased”. Further, in series [5], the ROS levels result is listed as “reduced” and the caspase levels result is given as “reduced”. In addition, the “increase of MTT activity” value in series [5] (vs. groups without CH or with 1 μM CH) is listed as 25-45%.
